Among the test systems are NCI/ADR-RES ovarian; SW-620 colon; ACHN renal; OVCAR-4 ovarian; SR leukemia; SK-OV-3 ovarian; UACC-257 melanoma; HCT-116 colon; UACC-62 melanoma; DU-145 prostate; SN12C renal; SNB-75 CNS.
Common to all, as to assay: inhibition of tumour cell growth, NCI panel, 48 h

This note sets out measurements from PubChem BioAssay (NCI).

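Compound exposure: 48 hours, 5 concentrations, 96-well plates. The concentration for full growth arrest is given as TGI.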

On to `CN1C(=O)C2(C)SC1(c1ccccc1)C1C(=O)N(c3ccccc3)C(=O)C12` (centres undefined), for which the TGI in the assay on NCI/ADR-RES ovarian, in the assay on SW-620 colon, in the assay with ACHN renal, with OVCAR-4 ovarian, with SR leukemia and in the assay on SK-OV-3 ovarian was over 100 µM each time. For the same compound, the TGI with UACC-257 melanoma is 93.3 µM; in the assay on HCT-116 colon it was over 100 µM; in the assay with UACC-62 melanoma, over 100 µM; in the assay on DU-145 prostate, over 100 µM; in the assay with SN12C renal it was over 100 µM.
With `CSC1=N/C(=C\c2ccc(Cl)cc2)C(=O)N1CN1CCCCC1`, the TGI is over 100 µM in the assay with NCI/ADR-RES ovarian; over 100 µM in the assay on SW-620 colon; 96.2 µM in the assay on ACHN renal; over 100 µM in the assay with SR leukemia; over 100 µM with SK-OV-3 ovarian; over 100 µM in the assay on HCT-116 colon. Besides, the TGI with SNB-75 CNS, with UACC-62 melanoma, in the assay on DU-145 prostate and with SN12C renal was over 100 µM throughout.
Take `CC(=O)Nc1ccc2c3c(cc(O)c2c1)N(C(=O)CCCC(=O)N1CC(CCl)c2c1cc(O)c1cc(NC(C)=O)ccc21)CC3CCl` (centres undefined): the TGI in the assay on NCI/ADR-RES ovarian is over 100 µM; in the assay with SW-620 colon, over 100 µM; in the assay on ACHN renal it was under 0.0112 µM; with OVCAR-4 ovarian, 0.64 µM; with SR leukemia, under 0.01 µM; with SK-OV-3 ovarian, over 24.6 µM. Further, the TGI was under 0.0262 µM with SNB-75 CNS, 0.0173 µM with UACC-62 melanoma, under 0.01 µM in the assay on DU-145 prostate and over 100 µM in the assay on SN12C renal.
With `CSC12c3cc(C)n(-c4ccc([N+](=O)[O-])cc4)c3CC(C)(C)CN1C(=O)C2Oc1ccccc1` (centres undefined), the TGI with NCI/ADR-RES ovarian, in the assay with SW-620 colon, in the assay with ACHN renal, in the assay on OVCAR-4 ovarian, with SR leukemia and in the assay with UACC-257 melanoma was over 100 µM in each case. In addition, the TGI in the assay on HCT-116 colon, with SNB-75 CNS, in the assay on UACC-62 melanoma, in the assay with DU-145 prostate and with SN12C renal was over 100 µM in each case.
`CCOC(=O)C(C(=O)OCC)=C1SC(=Nc2ccccc2)C(=Nc2ccccc2)N1c1ccccc1`: the TGI in the assay with NCI/ADR-RES ovarian, in the assay with ACHN renal, in the assay on SR leukemia, in the assay with SK-OV-3 ovarian, with HCT-116 colon and with SNB-75 CNS was over 100 µM in each case. The TGI with UACC-62 melanoma, in the assay with DU-145 prostate and in the assay on SN12C renal was over 100 µM in each case.
In the case of `O=C1/C(=C\c2ccc(Cl)cc2)N=C(c2ccccc2)N1n1c(=O)cn[nH]c1=S`, the TGI is over 100 µM in the assay with NCI/ADR-RES ovarian; 44.4 µM in the assay on SW-620 colon; over 100 µM with ACHN renal; 69 µM in the assay on OVCAR-4 ovarian; 72.6 µM in the assay with SR leukemia; over 100 µM with SK-OV-3 ovarian. Also, the TGI in the assay with UACC-257 melanoma is over 100 µM; in the assay on HCT-116 colon, over 100 µM; with UACC-62 melanoma, over 100 µM; in the assay on DU-145 prostate, 58.3 µM.
Consider `Cc1cc(S(=O)(=O)NC2=NCc3nc4ccccc4n32)c(S)cc1Cl`, for which the TGI is 54.6 µM in the assay on NCI/ADR-RES ovarian; over 100 µM in the assay on SW-620 colon; over 100 µM with ACHN renal; 83.2 µM in the assay with OVCAR-4 ovarian; 49.4 µM with SR leukemia; 62.2 µM with UACC-257 melanoma. Also, the TGI is 34.5 µM in the assay on HCT-116 colon; 60.4 µM in the assay on SNB-75 CNS; 33.3 µM in the assay with UACC-62 melanoma; over 100 µM in the assay with DU-145 prostate; 51 µM in the assay on SN12C renal.
With `CCOC1OC(COC(=O)C(C)(C)C)C(O)CC1n1cc(C)c(=O)[nH]c1=O` (centres undefined), the TGI in the assay on NCI/ADR-RES ovarian, in the assay on SW-620 colon, in the assay with ACHN renal, in the assay on OVCAR-4 ovarian, in the assay on SR leukemia and in the assay on UACC-257 melanoma was over 100 µM each time. Moreover, the TGI in the assay on HCT-116 colon, with SNB-75 CNS, in the assay on UACC-62 melanoma, with DU-145 prostate and in the assay with SN12C renal was over 100 µM each time.
Turning to `Cc1ccc(CC(Cc2ccccc2C)C(=O)O)c(C(=O)O)c1` (centres undefined), the TGI in the assay with NCI/ADR-RES ovarian, in the assay with SW-620 colon, with ACHN renal, in the assay with OVCAR-4 ovarian, in the assay on SR leukemia and in the assay on UACC-257 melanoma was over 100 µM each time. The TGI in the assay with HCT-116 colon, in the assay on SNB-75 CNS, with DU-145 prostate and with SN12C renal was over 100 µM each time.
Take `CCOC(=O)c1nc2cc(C(F)(F)F)ccc2nc1Oc1ccc(C#N)cc1`: the TGI with NCI/ADR-RES ovarian, with SW-620 colon, in the assay on ACHN renal, in the assay on OVCAR-4 ovarian, with SR leukemia and in the assay on UACC-257 melanoma was over 100 µM each time. The TGI in the assay with HCT-116 colon, in the assay with SNB-75 CNS, with UACC-62 melanoma, in the assay with DU-145 prostate and in the assay with SN12C renal was over 100 µM each time.
